For assay [1], the target named is T1, rHuTS (Homo sapiens, UniProt P04818).
T1 construct: His tag (N); made in house; host or cells: E. coli BL21 (DE3), pET-28a(+)
The assay can be described thus: Inhibition of rHuTS reactions by Tomudex and 5-FdUMP. It is filed as biochemical. To be noted: for activity at 0.5 µM: read-out: rate as % of No Inhibitor. On the procedure:
M. Enzyme Assays and Kinetic Measurements. Thymidylate synthase assays were done in 96 well Costar UV transparent plates in a reaction volume of 200 μl, consisting of 40 mM Tris pH 7.5, 25 mM MgCl2, 1 mM EDTA, 25 mM-mercaptoethanol, 125 µM dUMP, and 65 μM N5, N1O-methylene tetrahydrofolate indicated. Tetrahydrofolate stock solutions were prepared by dissolving tetrahydrofolic acid (Sigma) directly into 0.2 M Tris pH 7.5, 0.5 M-mercaptoethanol; stock solutions were stored at −80° C. N5, N10-methylene tetrahydrofolate was prepared by adding 12 μl of 3.8% formaldehyde to 1 ml of a 0.65 mM solution of tetrahydrofolate and incubating for 5 minutes at 37° C. N5, N10-methylene tetrahydrofolate was kept on ice and used within 2 hours of preparation.
Conversion of BVdUMP to fluorescent product(s) by thymidylate synthase was measured in 200 µl thymidylate synthase reactions containing 125 µM BVdUMP in 96 well Dynex Microfluor Black “U” bottom microtiter plates using an excitation wavelength of 340 nm and emission wavelength of 595 nm. Fluorescence was measured with a Tecan Spectrafluor Plus fluorimeter.
Inhibition of rHuTS reactions by Tomudex and 5-FdUMP. Thymidylate synthase reactions containing enzyme inhibitors or cofactor were incubated at 30° C. as described in Materials and Methods, and the initial rates of the enzyme reaction were determined by measuring the increase in relative fluorescence units at 340 nm excitation, 595 nm emission for the BVdUMP reactions, or increase in A340 for the dUMP reaction.

For assay [2], the system named is MCF7 TDX Tomudex-resistant breast cancer cells. The assay can be described thus: alamarBlue growth inhibition, MCF7 TDX. The class given is cell-based. To be noted: Homo sapiens. On the procedure: (§1) J. Growth Inhibition Studies. Cells growing exponentially were transferred to 384-well flat bottom tissue culture plates. All cell types were plated at a density of 500 cells per well in 25 μL of complete medium (RPMI 1640+10% fetal bovine serum+antibiotics/antimycotics). After 24 hours (day 0), 25 μL of complete medium containing the experimental compounds over the dose range of 10^ñ3 to 10^ñ10 M were added in triplicate. Drug exposure time was 120 hours (day 5), after which growth inhibition was assayed. 5 μL of the redox indicator, alamarBlue, was added to each well (10% v/v). After 4 hours incubation at 37° C., fluorescence was monitored at 535 nm excitation and 595 nm emission.
(§2) Concentration vs. relative fluorescence units (RFU) were plotted, and sigmoid curves were fit using the Hill equation.
(§3) O. Reversal of Resistance. The origin and characteristics of the human breast cancer MCF7 TDX cell line have been previously described (Drake, et al. (1996) Biochem. Pharmcol. 51(10): 1349-1355). Briefly, MCF-7 breast cancer cells were selected in vitro for resistance to Tomudex by continuous exposure to stepwise increases in TDX concentrations up to 2.0 μM.
(The colour change of resazurin is a common sign of viable cells or microbes.)

Assay [3] deals with TSL/HT1080 cells (TS Level 702%). The assay can be described thus: alamarBlue growth inhibition, HT1080 clone with TS level 702%. It is filed as cell-based. Conditions: Homo sapiens, HT-1080, TSL/HT1080 (second line). On the procedure: (§4) F. Cell lines and transfection. HT1080 cells were grown in PRMI1640 medium supplemented with 10% fetal calf serum, and transfected with GFP-TS expression vector. 48 hours after, transfection cells were tripsinized and replated in culture medium containing 750 μg/ml G418. After selection with G418 for two weeks, surviving cells were sorted based upon fluorescence expression. One clone with higher fluorescence expression (named as TSH/HT1080) and one clone with lower fluorescence expression (named as TSL/HT1080) were selected and expanded into cells lines. The stable HT1080 cells transfected with pEGFP-C3 were used as control.
(§5) G. Construction of GFP-TS expression vector. […]
(§6) J. Growth Inhibition Studies. […] After 4 hours incubation at 37° C., fluorescence was monitored at 535 nm excitation and 595 nm emission.
as §2
(§7) A cDNA encoding rHuTS was subcloned into ventor pEGFP-C3, in-frame with GFP. […] Individual cells were cloned based upon high or low fluorescence expression as described in Methods. *TS levels were determined by using Western blot analysis, the quantified expression levels were expressed as values relative to that of cell strain CCD18co.

The test system of assay [4] is normal and tumor cell types. Description: Tumor/normal cell screen, panel averages and therapeutic index. The class given is cell-based, human. On the procedure: as §1, §2
Assays were carried out as described in Methods, above. Therapeutic index is calculated as the ratio of the average IC50 for normal cells to the average IC50 for tumor cells. All assays were done at least three times.

The test system of assay [5] is MCF7 (Breast) tumor cells. The assay can be described thus: alamarBlue growth inhibition, MCF7. It is filed as cell-based. To be noted: Homo sapiens. On the procedure:
as §1, with “Drug exposure time was 120 hours (day 5), after which growth inhibition was assayed.” left out
as §2

In assay [6] the test system is CCD18co normal colon epthelial cell. The assay can be described thus: Thymidine rescue, alamar blue. It is filed as cell-based, human. To be noted: for rescue by thymidine: 10 uM thymidine; for IC50: Homo sapiens, CCD-18Co. The text has this: An additional approach was taken to understanding whether NB1011 might interfere with cell growth primarily by inactivating TS. This approach is based upon thymidine rescue of TS-blocked cells. […] For this reason, they survive only by scavenger mechanisms. One of the important scavenger mechanisms is utilization of extracellular thymidine. Thymidine incorporated by target cells can be converted to dTMP, usually by thymidine kinase, and thus continue DNA synthesis. Other pathways for use of exogenous thymidine have also been described If an important mechanism for NB1011 activity is via inhibition of endogenous TS, then the cytotoxicity should be relieved when thymidine is added to the cell culture media. For this experiment, a number of tumor cell lines were screened for their sensitivity to Tomudex and 5FdUrd, and ability to be rescued from these agents via thymidine supplementation. […] Experiments were carried out as described by (Patterson, et al. (1998) Cancer Res. 58: 2737-2740) with or without 10 uM thymidine, except that the alamar blue assay (see Materials and Methods) was employed to determine cytotoxicity.

Assay [7] relates to H630R10 5FU-resistant colon tumor cells. The assay can be described thus: alamarBlue growth inhibition, H630R10. It is filed as cell-based, human. On the procedure: as §1, with “Drug exposure time was 120 hours (day 5), after which growth inhibition was assayed.” left out
as §2

For assay [8], the target named is T1, rHuTS. Description: Impact of folate inhibitors, cell-free rHuTS substrate utilization. The class given is biochemical. To be noted: for remaining activity: MTX 140 μM, LV 140 μM or TDX 5 μM. On the procedure:
M. Enzyme Assays and Kinetic Measurements. […] Tetrahydrofolate stock solutions were prepared by dissolving tetrahydrofolic acid (Sigma) directly into 0.2 M Tris pH 7.5, 0.5 M-mercaptoethanol; stock solutions were stored at −80° C. […] N5, N10-methylene tetrahydrofolate was kept on ice and used within 2 hours of preparation.
Cell-free assays using rHuTS, the appropriate substrate and other components were combined as described in Methods. […] Utilization of substrate (either BVdUMP or THF) was employed as a measure of reaction rate. The numbers indicate remaining activity.

Assay [9] addresses T2, recombinant human thymidylate synthase (rHuTS) (Homo sapiens, UniProt P04818).
T2 construct: His tag (N); made in house; host or cells: E. coli BL21 (DE3), pET-28a(+)
The assay can be described thus: Enzyme kinetics of rHuTS with dUMP and BVdUMP. The class given is biochemical. On the procedure: L. Enzyme Preparation. Cloned human thymidylate synthase plasmid pBCHTS was subcloned into E. coli. BL21 (DE3)/pET-28a(+) (Novagen) using the NdeI ñSacI insertion site, in order to add an amino terminal His tag. […] M. Enzyme Assays and Kinetic Measurements. […] Tetrahydrofolate stock solutions were prepared by dissolving tetrahydrofolic acid (Sigma) directly into 0.2 M Tris pH 7.5, 0.5 M-mercaptoethanol; stock solutions were stored at -80° C. […] N5, N10-methylene tetrahydrofolate was kept on ice and used within 2 hours of preparation. […] The catalytic efficiency of the enzyme (Kcat/Km) was calculated from the kinetic constants Km and Vmax.

The test system of the next assay is MCF7 TDX/1011 cells. Description: alamarBlue growth inhibition, MCF7 TDX/1011. The class given is cell-based. Conditions: Homo sapiens. On the procedure:
as §1, §2, §3

Another assay relates to C/HT1080 cells. The assay can be described thus: alamarBlue growth inhibition, C/HT1080 control. The class given is cell-based. To be noted: Homo sapiens, HT-1080; C/HT1080, TS Level 100%. On the procedure: as §4, §5, §6, §2, §7
Assay [10] has as its system TSL/HT1080 cells (GFP-TS, lower expression). The assay can be described thus: alamarBlue growth inhibition, TSL/HT1080. The class given is cell-based. To be noted: Homo sapiens, HT-1080; TSL/HT1080, TS Level 409%. On the procedure: as §4, §5, §6, §2, §7
Where [11] appears, read: BVdUMP − THF, inhibitor 500 nM, relative fluorescence units.

Structures are written as SMILES. Like-named read-outs stand apart in the source and are kept apart here.

T1 sequence (P04818 whole entry): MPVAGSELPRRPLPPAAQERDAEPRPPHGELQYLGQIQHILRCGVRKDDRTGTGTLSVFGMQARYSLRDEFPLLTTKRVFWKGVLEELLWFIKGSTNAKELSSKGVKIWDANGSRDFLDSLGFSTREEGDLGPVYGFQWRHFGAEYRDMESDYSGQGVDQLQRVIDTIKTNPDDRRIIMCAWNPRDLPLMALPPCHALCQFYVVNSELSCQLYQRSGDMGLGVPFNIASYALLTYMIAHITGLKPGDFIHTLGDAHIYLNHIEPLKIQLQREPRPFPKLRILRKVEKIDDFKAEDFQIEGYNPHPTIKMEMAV
T2 sequence (P04818 whole entry): as above

Regarding `O=c1[nH]c(=O)n([C@H]2C[C@H](O)[C@@H](COP(=O)(O)O)O2)cc1F` [5-FdUMP], the “initial rate of rHuTS reaction” value on rHuTS [1] (BVdUMP + THF, inhibitor 500 nM) was found to be 44 ± 2 RFU/min; at rHuTS [1] (setting [11]), 93 ± 13; on rHuTS [1] (dUMP + THF, inhibitor 500 nM), 290 ± 70 nmol/min.

As for `O=c1[nH]cc(F)c(=O)[nH]1` [5FU, 5-fluorouracil], the figures for the concentration for half-maximal inhibition (IC50) in [2], in assay [3] and in assay [5] were 32 µM, 3.5 µM and 10 µM, respectively. Further, the “more toxic to normal cells than to tumor cells” value in assay [4] (overall) worked out at 3 fold. Further, the “Therapeutic index (N/T)” value in assay [4] (ratio of average IC50 normal cells to average IC50 tumor cells) stood at 0.30.

As for `O=c1[nH]c(=O)n([C@H]2C[C@H](O)[C@@H](CO)O2)cc1F` [5FUdR, 5-fluoro-2′-deoxyuridine], the rescue by thymidine entry in assay [6] is “greater than 590 fold”. In addition, in [7], the “more toxic to normal colon cells (CCD18co) than to 5FU-resistant H630R10 tumor cells” value was “about 18 fold”.

As to `O=c1[nH]c(=O)n([C@H]2C[C@H](O)[C@@H](COP(=O)(O)O)O2)cc1/C=C/Br` [BVdUMP, (E)5-(2-Bromovinyl)-2′-deoxyuridine 5′-monophosphate], on rHuTS [8] (BVdUMP, w/o THF, Inhibitor None), the “substrate utilization rate relative to reaction with THF” value was 138%. Also, in [9] (20 μM BVdUMP, dUMP 10 to 100 μM), the “type of inhibition with dUMP in rHuTS” value is given as “competitive”. The “increase in catalytic efficiency of BVdUMP conversion, human enzyme vs L. casei enzyme” value in assay [9] (relative to endogenous substrate dUMP) is on record as > 6.4 fold. Besides, the “initial rate of rHuTS reaction” value on rHuTS [1] (BVdUMP + THF, No Inhibitor, 30° C.) was 109 ± 16 RFU/min; on rHuTS [1] (BVdUMP − THF, No Inhibitor, relative fluorescence units), 75 ± 11.

With `Nc1nc2c(c(=O)[nH]1)N(C=O)C(CNc1ccc(C(=O)N[C@@H](CCC(=O)O)C(=O)O)cc1)CN2` (stereo partly shown) [LV, 5-formyltetrahydrofolate], the remaining activity (in general, the signal under treatment as a percentage of the control signal) on rHuTS [8] (BVdUMP, w/o THF) is recorded as 97%; at rHuTS [8] (BVdUMP, with THF), 17%; on rHuTS [8] (dUMP, with THF), 77%.

`Cc1nc2ccc(CN(C)c3ccc(C(=O)N[C@@H](CCC(=O)O)C(=O)O)s3)cc2c(=O)[nH]1` [Tomudex] registered a rescue by thymidine in assay [6] of 15 fold. The IC50 (commonly the concentration needed to halve the response being measured) in [6] (with 10 uM thymidine) was 0.095 µM; in assay [6] (without thymidine), 0.0065 µM; in assay [2], > 10 µM; in [3], 153 µM; in the assay with MCF7 TDX/1011 cells it was 0.041 µM; in the assay on C/HT1080 cells, 3.6 µM. In addition, the results for the IC50 in [5] and in assay [10] were 0.026 µM and 24 µM, respectively. The remaining activity on rHuTS [8] (BVdUMP, w/o THF) turned out to be 25%; on rHuTS [8] (BVdUMP, with THF), 0%; at rHuTS [8] (dUMP, with THF), 18%. The “initial rate of rHuTS reaction” value at rHuTS [1] (BVdUMP + THF, inhibitor 500 nM) came out at 67 ± 3 RFU/min; at rHuTS [1] (setting [11]) it was 34 ± 3; on rHuTS [1] (dUMP + THF, inhibitor 500 nM), 690 ± 40 nmol/min. Besides, the activity at 0.5 µM on rHuTS [1] (BVdUMP + THF, inhibitor 500 nM) was 61%; on rHuTS [1] (BVdUMP − THF, inhibitor 500 nM) it was 45%; at rHuTS [1] (dUMP + THF, inhibitor 500 nM), 46%.

On to `O=c1ccn([C@H]2C[C@H](O)[C@@H](COP(=O)(O)O)O2)c(=O)[nH]1` [dUMP, Deoxguridine Monophosphate], for which, on rHuTS [1] (dUMP + THF, No Inhibitor, A340), the “initial rate of rHuTS reaction” value was 1500 ± 20 nmol/min.

The values are drawn from patent publication US7419968B1, “Methods for treating therapy-resistant tumors” (Celmed Oncology (USA), Inc., priority 1999, dated 2008).
